# In patent US9750809B2, “Cancer treatment” (MOREX DEVELOPMENT PARTNERS LLP, priority 2012, dated 2017):
# Legend:
# [1] = mouse, in vivo
# Method: Direct current plasma-atomic emission spectroscopy [DCP-AES] (ARL/Fisons Model SS-7) was used (detection limit: 0.1 μg B/mL) to determine boron concentrations in tissues of individual mice. Samples (50-130 mg) were digested at 60° C. with sulfuric acid:nitric acid (1:1). Triton X-100 and water were added to give final concentrations of ˜50 mg tissue/mL, 15% total acid v/v and 5% Triton X-100 v/v. […] It is known that the ether linkages between the porphyrin and carborane cages remain intact in vivo.
# [2] = test system: SCCVII squamous cell carcinomas
# Method: Mice were euthanized when the tumour volume reached 500 mm^3; and
# SCCVII murine squamous cell carcinoma cells were cultured in D-MEM enriched with 10% fetal bovine serum, 1% penicillin/streptomycin and 1% L-glutamine. Only passages 1-3 were used to initiate tumours. Cells (2×10^5 in 0.05 mL of medium) were then implanted sc into the left thighs of 20-25 g female C3H mice (Charles River Laboratories, Wilmington, Mass.).
# Due to the large number of animals to be dosed and irradiated, it was necessary to split the animals into two equally sized groups: Groups A and B. Animals in each Group A were injected on day 7 after tumour implantation, while animals in each Group B were injected on day 8 post tumour implantation.
# The animals in Group A were irradiated 8 days, and those in Groups B were irradiated 9 days after tumour implantation. Mice were anesthetized (sodium pentobarbital, ˜60 μg/g i.p.) and positioned for irradiation with the tumour-bearing leg extended across a 2-cm diameter collimated irradiation port. Tumours were irradiated using a single dose fraction of 32 gy at a dose-rate of 2.0 Gy/min using a Philips RT-100 set, operating at 100 kVp and 8 mA.
# Tumours were measured 2-3 times per week and the mice were killed humanely when the calculated tumour volume (x^2y/2, where x is the shorter surface dimension) exceeded 500 mm^3.
# Dosimetry for X-irradiation was carried out using a thimble ionization chamber applying the 1996 IPEB code of practice.
# [3] = 150 mg/kg MTL005 + 32 Gy vs 32 Gy alone
# [4] = 150 mg/kg MTL005 i.p. one day prior to 32 Gy X-rays, 11 mice
substance,measurement,setting,value
"copper meso-5,15-bis[3-[(1,2-dicarba-closo-dodecaboranyl)methoxy]phenyl]-meso-10,20-dinitroporphyrin [MTL005]",Retention of active sensitiser in the tumour after single administration,[1],still a significant concentration of active sensitiser in the tumour
same,Number of surviving mice compared with X-rays alone,[2]; [3],higher
same,"Tumour control compared with X-rays alone (Kaplan-Meier, FIG. 2)",[2]; [3],greater tumour control
same,% Tumour control,[2]; [4],54.5%
same,"Controlled tumours (volume of 0 mm^3), number of mice",[2]; [4],6
same,Mice alive at 62 days with observable tumours,[2]; [4],2
same,Number of controlled tumours compared to radiation alone,[2]; 32 Gy,doubled
